Read-outs that look alike come from different tables or passages of the source.
Key:
morningglory = experiment: Test A pre-/postemergence herbicide test; format: in vivo, Ipomoea spp.; conditions: for pest or weed control at 500 g/ha / pest or weed control at 1000 g/ha / pest or weed control at 125 g/ha: Ipomoea, 240 h, read-out: Plant response rating, Morningglory; for pest or weed control at 1000 g/ha: 1000 g ai/ha
Outline: (§1)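 Greenhouse pot test with pre- and postemergence application of surfactant-containing solvent formulations. Postemergence plants were 2–10 cm, one- to two-leaf stage. Response scored visually after ~10 days, 0 (no effect) to 100 (complete control).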

pigweed [1] = experiment: Test A pre-/postemergence herbicide test; format: in vivo, Amaranthus retroflexus; conditions: for pest or weed control at 500 g/ha / pest or weed control at 1000 g/ha / pest or weed control at 125 g/ha: Amaranthus retroflexus, 240 h, read-out: Plant response rating, Pigweed; for pest or weed control at 1000 g/ha: 1000 g ai/ha
Outline: as §1

pigweed [2] = experiment: Test C pre-/postemergence herbicide test; format: in vivo, Amaranthus retroflexus
Outline: (§2)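 Greenhouse pots; formulation = non-phytotoxic solvent mix + surfactant. PRE onto seeds in loam:sand; POST at 1–4 leaves (2–18 cm) in peat moss/vermiculite medium. Read-out: visual % control vs untreated, day 13–15.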

sedge, umbrella = experiment: Test C flooded paddy test; format: in vivo, Cyperus difformis; conditions: Flood
Outline: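 2-leaf stage; flood 3 cm over soil; compound into paddy water; depth held; greenhouse 13–15 d; visual % control vs untreated (0 = none, 100 = complete); "-" = not tested.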

ragweed = experiment: Test A pre-/postemergence herbicide test; format: in vivo, Ambrosia elatior; conditions: for Plant response rating, Ragweed: 0 to 100 scale
Outline: as §1

ryegrass, Italian = experiment: Test A pre-/postemergence herbicide test; format: in vivo, Lolium multiflorum; conditions: for Plant response rating, Ryegrass, Italian: 0 to 100 scale
Outline: as §1

barnyardgrass = experiment: Test C pre-/postemergence herbicide test; format: in vivo, Echinochloa crus-galli
Outline: as §2

[3] = Postemergence, 125 g ai/ha, 0 to 100 scale, 0 no effect, 100 complete control
[4] = Postemergence, 500 g ai/ha, 0 to 100 scale (0 no effect, 100 complete control)
[5] = Preemergence, 125 g ai/ha, visual rating on 0 to 100 scale (0 no effect, 100 complete control)
[6] = preemergence, 500 g ai/ha, 0 to 100 scale
[7] = Preemergence, 62 g ai/ha, scale 0 to 100
[8] = Preemergence, 125 g ai/ha, scale 0 to 100 (0 no effect, 100 complete control)
[9] = 62 g ai/ha, scale of 0 to 100 where 0 is no effect and 100 is complete control, 13 to 15 days
[10] = post-emergence, Postemergence, 500 g ai/ha, 0 to 100 scale (0 no effect, 100 complete control)
[11] = pre-emergence, preemergence, 500 g ai/ha, 0 to 100 scale
[12] = 125 g ai/ha, scale of 0 to 100 where 0 is no effect and 100 is complete control, 13 to 15 days
[13] = post-emergence, Postemergence, 0 to 100 scale (0 no effect, 100 complete control)
[14] = pre-emergence, Preemergence, visual rating on 0 to 100 scale (0 no effect, 100 complete control), approx. 10 days
[15] = Postemergence, 125 g ai/ha, scale 0 to 100 (0 no effect, 100 complete control)
[16] = Postemergence, 250 g ai/ha, scale 0 to 100 (0 no effect, 100 complete control)
[17] = 31 g ai/ha, scale of 0 to 100 where 0 is no effect and 100 is complete control, 13 to 15 days
[18] = post-emergence, Postemergence, 125 g ai/ha, 0 to 100 scale, 0 no effect, 100 complete control
[19] = 125 g ai/ha, visual rating, 0 no effect, 100 complete control, approximately 10 days, preemergence
[20] = Postemergence, 125 g ai/ha, 0 is no effect, 100 is complete control
[21] = preemergence, 500 g ai/ha, 0 is no effect and 100 is complete control
[22] = Postemergence, 31 g ai/ha, scale 0 to 100 (0 no effect, 100 complete control)
[23] = Postemergence, 62 g ai/ha, scale 0 (no effect) to 100 (complete control)
[24] = Preemergence, 31 g ai/ha, scale 0 to 100, 0 is no effect and 100 is complete control

O=C1NCC(c2ccc(Cl)c(Cl)c2)C1C(=O)Nc1ccccc1F (racemic) [Compound 14]
Plant response rating, Morningglory (morningglory; [3]): 0 | Plant response rating, Morningglory (morningglory; [4]): 0 | Morningglory plant response rating (morningglory; [5]): 0 | Plant response rating, Morningglory (morningglory; [6]): 0 | Plant response rating, Pigweed (pigweed [1]; [3]): 0 | Plant response rating, Pigweed (pigweed [1]; [4]): 0 | Pigweed plant response rating (pigweed [1]; [5]): 0 | Plant response rating, Pigweed (pigweed [1]; [6]): 20 | Plant response rating, Pigweed (pigweed [2]; [7]): 0 | Plant response rating, Pigweed (pigweed [2]; [8]): 0 | Plant response rating, Sedge, Umbrella (sedge, umbrella; [9]): 0 | Plant response rating, Sedge, Umbrella (sedge, umbrella; 250 g ai/ha, scale 0 to 100): 20

O=C1NCCC1C(=O)N(c1ccc(F)c(F)c1)c1ccccc1F (stereo not drawn) [Compound 5, N-(3,4-difluorophenyl)-N-(2-fluorophenyl)-2-oxo-3-pyrrolidinecarboxamide]
pest or weed control at 500 g/ha (morningglory; [10]): 10% | pest or weed control at 500 g/ha (morningglory; [11]): 0% | Morningglory plant response rating (morningglory; [5]): 0 | pest or weed control at 500 g/ha (pigweed [1]; [10]): 0% | pest or weed control at 500 g/ha (pigweed [1]; [11]): 0% | Pigweed plant response rating (pigweed [1]; [5]): 0 | Plant response rating, Pigweed (pigweed [2]; [7]): 0 | Plant response rating, Pigweed (pigweed [2]; [8]): 0 | Plant response rating, Sedge, Umbrella (sedge, umbrella; [9]): 0 | Plant response rating, Sedge, Umbrella (sedge, umbrella; [12]): 0 | Plant response rating, Sedge, Umbrella (sedge, umbrella; 250 g ai/ha, scale 0 to 100): 0

O=C1NCC(c2ccc(F)c(F)c2)C1C(=O)Nc1cccc(F)c1F (stereo not drawn) [Compound 17, N-(2,3-difluorophenyl)-4-(3,4-difluorophenyl)-2-oxo-3-pyrrolidinecarboxamide]
pest or weed control at 1000 g/ha (morningglory; [13]): 0% | pest or weed control at 1000 g/ha (morningglory; [14]): 30% | pest or weed control at 1000 g/ha (pigweed [1]; [13]): 40% | pest or weed control at 1000 g/ha (pigweed [1]; [14]): 50% | Plant response rating, Pigweed (pigweed [2]; Postemergence, 31 g ai/ha, scale 0 (no effect) to 100 (complete control)): 0 | Plant response rating, Pigweed (pigweed [2]; Postemergence, 62 g ai/ha, scale 0 to 100 (0 no effect, 100 complete control)): 0 | Plant response rating, Pigweed (pigweed [2]; [15]): 0 | Plant response rating, Pigweed (pigweed [2]; [16]): 0 | Plant response rating, Pigweed (pigweed [2]; [7]): 0 | Plant response rating, Pigweed (pigweed [2]; [8]): 50 | Plant response rating, Sedge, Umbrella (sedge, umbrella; [17]): 0 | Plant response rating, Sedge, Umbrella (sedge, umbrella; [9]): 0 | Plant response rating, Sedge, Umbrella (sedge, umbrella; [12]): 0 | Plant response rating, Sedge, Umbrella (sedge, umbrella; 250 g ai/ha, scale 0 to 100): 40

O=C1NCC(Br)(c2ccccc2)C1C(=O)Nc1ccccc1F (stereo not drawn) [Compound 92, 4-bromo-N-(2-fluorophenyl)-2-oxo-4-phenyl-3-pyrrolidinecarboxamide]
pest or weed control at 125 g/ha (morningglory; [18]): 0% | pest or weed control at 500 g/ha (morningglory; [10]): 0% | pest or weed control at 500 g/ha (morningglory; [11]): 0% | Morningglory plant response rating (morningglory; [5]): 0 | pest or weed control at 125 g/ha (pigweed [1]; [18]): 0% | pest or weed control at 500 g/ha (pigweed [1]; [10]): 0% | pest or weed control at 500 g/ha (pigweed [1]; [11]): 0% | Pigweed plant response rating (pigweed [1]; [5]): 0 | Plant response rating, Sedge, Umbrella (sedge, umbrella; [17]): 0 | Plant response rating, Sedge, Umbrella (sedge, umbrella; [9]): 0 | Plant response rating, Sedge, Umbrella (sedge, umbrella; [12]): 0 | Plant response rating, Sedge, Umbrella (sedge, umbrella; 250 g ai/ha, scale 0 to 100): 0

O=C1NCC(c2ccccc2)C1(Br)C(=O)Nc1ccccc1F (stereo not drawn) [Compound 93, 3-bromo-N-(2-fluorophenyl)-2-oxo-4-phenyl-3-pyrrolidinecarboxamide]
pest or weed control at 125 g/ha (morningglory; [18]): 0% | pest or weed control at 500 g/ha (morningglory; [10]): 0% | pest or weed control at 500 g/ha (morningglory; [11]): 0% | Morningglory plant response rating (morningglory; [5]): 0 | pest or weed control at 125 g/ha (pigweed [1]; [18]): 0% | pest or weed control at 500 g/ha (pigweed [1]; [10]): 0% | pest or weed control at 500 g/ha (pigweed [1]; [11]): 0% | Pigweed plant response rating (pigweed [1]; [5]): 0 | Plant response rating, Sedge, Umbrella (sedge, umbrella; [17]): 0 | Plant response rating, Sedge, Umbrella (sedge, umbrella; [9]): 0 | Plant response rating, Sedge, Umbrella (sedge, umbrella; [12]): 0 | Plant response rating, Sedge, Umbrella (sedge, umbrella; 250 g ai/ha, scale 0 to 100): 100

O=C1NC[C@H](c2cccc(C(F)(F)F)c2)[C@H]1C(=O)Nc1ccccc1F [Compound 204, (3R,4S)—N-(2-fluorophenyl)-2-oxo-4-[3-(trifluoromethyl)phenyl]-3-pyrrolidinecarboxamide]
Plant response rating, Ragweed (ragweed; [19]): 0 | Plant response rating, Ragweed (ragweed; [20]): 0 | Ragweed plant response rating (0 to 100 scale, 0 is no effect, 100 is complete control) (ragweed; Postemergence, 500 g ai/ha): 0 | Plant response rating, Ragweed (ragweed; [21]): 80 | Plant response rating, Ryegrass, Italian (ryegrass, Italian; [19]): 20 | Plant response rating, Ryegrass, Italian (ryegrass, Italian; [20]): 30 | Ryegrass, Italian plant response rating (0 to 100 scale, 0 is no effect, 100 is complete control) (ryegrass, Italian; Postemergence, 500 g ai/ha): 50 | Plant response rating, Ryegrass, Italian (ryegrass, Italian; [21]): 50 | pest or weed control at 125 g/ha (pigweed [1]; post-emergence, Postemergence, 125 g ai/ha, 0 to 100 scale, 0 is no effect, 100 is complete control): 0% | pest or weed control at 125 g/ha (pigweed [1]; pre-emergence, 125 g ai/ha, visual rating, 0 to 100 scale, 0 no effect, 100 complete control, approximately 10 days): 0% | pest or weed control at 500 g/ha (pigweed [1]; pre-emergence, preemergence, 500 g ai/ha, 0 to 100 scale, 0 is no effect and 100 is complete control): 50% | Pigweed plant response rating (0 to 100 scale, 0 is no effect, 100 is complete control) (pigweed [1]; Postemergence, 500 g ai/ha): 20 | Plant response rating, Pigweed (pigweed [2]; [22]): 20 | Plant response rating, Pigweed (pigweed [2]; [23]): 10 | Plant response rating, Pigweed (pigweed [2]; [15]): 10 | Plant response rating, Pigweed (pigweed [2]; [16]): 10 | Pigweed plant response rating (pigweed [2]; [24]): 0 | Pigweed plant response rating (pigweed [2]; Preemergence, 62 g ai/ha, scale 0 to 100 (0 no effect, 100 complete control)): 0 | Plant response rating, Pigweed (pigweed [2]; [8]): 0 | Plant response rating (scale of 0 to 100), Pigweed (pigweed [2]; Preemergence, 250 g ai/ha): 75 | Plant response rating, Barnyardgrass (barnyardgrass; [22]): 5 | Plant response rating, Barnyardgrass (barnyardgrass; [23]): 55 | Plant response rating, Barnyardgrass (barnyardgrass; [15]): 80 | Plant response rating, Barnyardgrass (barnyardgrass; [16]): 90 | Barnyardgrass plant response rating (barnyardgrass; [24]): 80 | Plant response rating, Barnyardgrass (barnyardgrass; [7]): 90 | Plant response rating, Barnyardgrass (barnyardgrass; [8]): 95 | Plant response rating (scale of 0 to 100; 0 is no effect, 100 is complete control), Barnyardgrass (barnyardgrass; Preemergence, 250 g ai/ha): 95 | Plant response rating, Sedge, Umbrella (sedge, umbrella; [12]): 0 | Plant response rating, Sedge, Umbrella (sedge, umbrella; 250 g ai/ha, scale of 0 to 100 where 0 is no effect and 100 is complete control, 13 to 15 days): 0 | Plant response rating, Sedge, Umbrella (sedge, umbrella; 500 g ai/ha, scale 0 to 100): 0 | Plant response rating, Sedge, Umbrella (sedge, umbrella; 1000 g ai/ha, scale 0 to 100): 0

Reference: patent US10294202B2, “Pyrrolidinones as herbicides” (FMC Corporation, priority 2013, dated 2019)
